Several values for one entry are separate records, joined by “and”; a condition that tells them apart may be missing. Equal entries are not always repeated. Where two headings read alike, the source gives them in different places. Marks after values point to notes of the source that are not given here. Values belong to the molecule of their own block, whether it stands above or below them.
Experiments:
[1] = Hydroxyl radical scavenging speed constant (deoxyribose / thiobarbituric acid method); settings: pH 7.4, 37° C., one hour
Description: Test 5: Evidence of the Antioxidant Effect of the N-Acety-(DL)-Methionyl-4-(Methylthio)Propylamine and N-Propionyl-(DL)-Methionyl-4-(Methylthio)Propylamine on the Hydroxyl Radical
The method, described by Rehman A. and coll. (British J. Pharmacol. (1997), vol. 122, pp. 1702-1706), is used for the determination of the scavenging speed constant of the hydroxyl radical [Ks (OH°)], the peptidomimetic according to the invention being compared to two reference antioxidants, mannitol and ascorbic acid (vitamin C).
Experimentally, the tested substance is dissolved in a buffered medium of pH 7.4 to which is added a OH° generating system (ascorbate/iron/EDTA) in presence of deoxyribose. After one hour of incubation at 37° C., the reaction is stopped with the help of trichloroacetic acid. After colorimetric visualization with thiobarbituric acid, the absorbance is measured at 532 nm for different concentrations, then the relative Ks (OH°) is calculated for each of the substances.

[2] = Whitening test of pyrogallol red by peroxynitrite ions; settings: inhibition of pyrogallol red (50 μM) oxidation by ONOO− (25 μM), pH 7.0, 5 minutes
Description: Test 6: Evidence of the Antioxidant Effect of the […])Propylamine Compound on Peroxynitrite Ions The method so-called “whitening test of the pyrogallol red (PR)”, described by Nath V. B. and coll.

[3] = system: mitochondrial mass of V79 cells; experiment: Mitochondrial mass / biogenesis in V79 cells under H2O2 stress (MitoTracker Green FM, flux cytometry); assay type: cell-based, hamster; settings: Mitogreen
Description: (§1) Test 3: Evidence of the Protective Effect of the N-Acety-(DL)-Methionyl-4-(Methylthio)Propylamine Compound on the Mitochondrial Oxidative Stress and on the Mitochondrial Biogenesis
(§2) Principles: measures of the mitochondrial intracellular oxidative stress and detection of the mitochondrial biogenesis were achieved by flux cytometry with the following fluorophore markers: • the “MitoSOX™ Red” red fluorescent probe below-designed “MitoSOX” (detection to λ=580 nm; supplier: Invitrogen) allows to specifically detect the O2°^− superoxide anion present in mitochondria (due to its strong affinity for mitochondria), • the “MitoTracker® Green FM” green fluorescent probe below-designed “Mitogreen” (detection to λ=516 nm; supplier: Invitrogen) allows to quantify the mitochondrial mass (or related number of mitochondria per cell).
(§3) Experimentally, tests were achieved on a fibroblastic line of hamster “V79”, maintained by lining out in a “EMEM” complete culture medium (with 10% foetal calf serum) in humid atmosphere at 37° C. and 5% CO2. The V79 cells are seeded then incubated 24 hours in […] at the rate of 2.5·10^5 cells per well in 3 ml of the same culture medium, then exposed 1h30 to a stress with the addition of a medium containing hydrogen peroxide H2O2 (15 ppm).
(§4) After trypsination, the cells are incubated at 37° C. for 15 minutes in 1 ml of “EMEM” complete culture medium and containing the above-mentioned markers “MitoSOX” (at the final concentration of 5 μM) and “Mitogreen” (at the final concentration of 200 nM), for respective detection: • of the mitochondrial oxidative stress (expressed in % of positive cells) • of the mitochondrial mass per cell (expressed in % of MFI (“Mean Fluorescence Intensity”) in relation to the control).
(§5) The results, expressed as the average values obtained from four independent experiments, are presented in the hereafter tables 3a and 3b, in comparison with those obtained for the N-acetyl-cysteine chosen as a reference protective agent at the concentration of 5 mM.

[4] = system: O2°− superoxide anion present in mitochondria of V79 cells; experiment: Mitochondrial oxidative stress in V79 cells under H2O2 stress (MitoSOX Red, flux cytometry); assay type: cell-based, hamster; settings: for % of positive cells to MitoSOX: V79 cells
Description: as §1, §2, §3, §4, §5

[5] = Percutaneous absorption on human skin explants (Frantz-type cells, OECD guideline 428); assay type: in vitro ADME; settings: 1% solution, 24 hours contact
Description: Test 2: Percutaneous Absorption Study of the Methionine-derived Peptidomimetics on Human Skin Explants: The values of permeability coefficient (Kp) were obtained from a previously frozen abdominal […] human skin, in accordance with protocol described in the OECD guidelines n° 428 on cutaneous absorption studies. Experimentally, the skin explants were placed on Frantz-type cells in passive diffusion, piloted by the “MicroettePlus Hanson Research” system. The tested products are applied in a non-occlusive way. After that skin was laid on the cells, 500 μl of peptidomimetic according to the invention (1% solution) were placed in each of the cells and for a total contact time of 24 hours. At the end of these ones, the remaining product is sampled and the skin surface rinsed for extraction and for measure of the absorbed quantity, then for the determination of the permeability coefficient expressed under logarithmic type (Log Kp).

[6] = system: cell line of fibroblasts called V79; experiment: Restoration of cellular ATP levels in V79 fibroblasts exposed to H2O2 stress (luminometry, ATPlite 1step); assay type: cell-based, hamster; settings: V79 cells
Experimental: Test 1: Evidence of the Ability of the Methionine-derived Peptidomimetics to Restore the Cellular ATP Levels on Cells Exposed to a Stress (H2O2):
The experimental study has been carried out on a cell line of fibroblasts called V79, and seeded in a 96 well plate at the rate of 5000 cells per well in 100 μl of culture medium (containing 10% foetal calf serum). This one is then replaced in each of the well by 100 μl of medium containing some peptidomimetics according to the invention, at the concentration of 7.5 mM or 10 mM. After 2 hours of incubation, the medium is removed from all wells. Then the cells are submitted to a stress with the addition of a medium containing 50 μl of hydrogen peroxide H2O2 (4 ppm). After 8 additional hours of incubation, the ATP average concentration is measured by luminometry in presence of luciferin (“ATPlite lstep” kit) and through a standard curve prepared from highly purified ATP.
The results, expressed as the average values obtained from three independent experiments, are presented in the hereafter table 1, in comparison with a control.

[7] = reference antioxidants, literature footnotes; cited from earlier work
[8] = literature value (Mitragotri 2003); cited from earlier work

- IC50 [2]: 1010 µM
- Kp [5]: 0.000109 cm/h
Structure (SMILES): CSCCCNC(=O)C(CCSC)NC(C)=O (stereo not drawn) [N-acetyl-(DL)-methionyl-4-(methylthio)propylamine]
- Ks(OH°) [1]: 6.1 10^9 · M^−1 · s^−1
- MFI (% control) ([3]; 7.5 mM + H2O2 (15 ppm, 1h30)): 123.5 % control
- MFI (% control) ([3]; 10 mM + H2O2 (15 ppm, 1h30)): 127.5 % control
- effect on intramitochondrial stress (MitoSOX and Mitogreen) ([4]; V79 cells + H2O2, in words, both tables 3a and 3b): ability to reduce the effect of intramitochondrial stress
- % of positive cells to MitoSOX ([4]; 7.5 mM + H2O2 (15 ppm, 1h30)): 40.3%
- ATP ([6]; compound 7.5 mM + H2O2 (4 ppm), 8 h): 483 nM
- ATP ([6]; compound 7.5 mM, no H2O2): 591 nM

Structure (SMILES): CC(=O)N[C@@H](CS)C(=O)O [N-acetyl-cysteine, reference compound]
- MFI (% control) ([3]; 5 ppm + H2O2 (15 ppm, 1h30)): 74.4 % control
- % of positive cells to MitoSOX ([4]; 5 ppm + H2O2 (15 ppm, 1h30)): 15.2%

- Kp [5]: 9.7e-05 cm/h
Structure (SMILES): CCC(=O)NC(CCSC)C(=O)NCCCSC (stereo not drawn) [N-propionyl-(DL)-methionyl-4-(methylthio)propylamine]
- Ks(OH°) [1]: 5.7 10^9 · M^−1 · s^−1
- ATP ([6]; compound 10 mM + H2O2 (4 ppm), 8 h): 449 nM
- ATP ([6]; compound 10 mM, no H2O2): 528 nM

- IC50 [2]: 83 µM
Structure (SMILES): Cc1c(C)c2c(c(C)c1O)CCC(C)(C(=O)O)O2 (stereo not shown) [Trolox, carboxylic 2-(6-hydroxy-2,5,7,8-tetramethylchromane) acid, reference compound]

Structure (SMILES): O=C1O[C@H]([C@@H](O)CO)C(O)=C1O [ascorbic acid]
- Ks(OH°) [7]: 10.1** 10^9 · M^−1 · s^−1

Structure (SMILES): Cn1c(=O)c2c(ncn2C)n(C)c1=O [caffeine]
- Kp [8]: 1 · 10^−4** cm · h^−1

Structure (SMILES): OC[C@@H](O)[C@@H](O)[C@H](O)[C@H](O)CO [mannitol]
- Ks(OH°) [7]: 1.6 10^9 · M^−1 · s^−1 and 1.9 10^9 · M^−1 · s^−1

— patent US8623338B2, “Methionine-derived peptidomimetics and their use in the protection of mitochondria of cutaneous cells” (Exsymol S.A.M., priority 2010, dated 2014)
